{"source": "patent US7186743B2", "about": "“Substituted pyrazolyl compounds for the treatment of inflammation” (Pharmacia Corporation, priority 2001, dated 2007)", "key": {"IKK2": {"molecular_target": "T1, IKK2 (Homo sapiens, UniProt O14920)", "T1 construct": "made in house; host or cells: insect cells (baculovirus, pFastBac; SF9)", "T1 sequence (O14920 1-756)": "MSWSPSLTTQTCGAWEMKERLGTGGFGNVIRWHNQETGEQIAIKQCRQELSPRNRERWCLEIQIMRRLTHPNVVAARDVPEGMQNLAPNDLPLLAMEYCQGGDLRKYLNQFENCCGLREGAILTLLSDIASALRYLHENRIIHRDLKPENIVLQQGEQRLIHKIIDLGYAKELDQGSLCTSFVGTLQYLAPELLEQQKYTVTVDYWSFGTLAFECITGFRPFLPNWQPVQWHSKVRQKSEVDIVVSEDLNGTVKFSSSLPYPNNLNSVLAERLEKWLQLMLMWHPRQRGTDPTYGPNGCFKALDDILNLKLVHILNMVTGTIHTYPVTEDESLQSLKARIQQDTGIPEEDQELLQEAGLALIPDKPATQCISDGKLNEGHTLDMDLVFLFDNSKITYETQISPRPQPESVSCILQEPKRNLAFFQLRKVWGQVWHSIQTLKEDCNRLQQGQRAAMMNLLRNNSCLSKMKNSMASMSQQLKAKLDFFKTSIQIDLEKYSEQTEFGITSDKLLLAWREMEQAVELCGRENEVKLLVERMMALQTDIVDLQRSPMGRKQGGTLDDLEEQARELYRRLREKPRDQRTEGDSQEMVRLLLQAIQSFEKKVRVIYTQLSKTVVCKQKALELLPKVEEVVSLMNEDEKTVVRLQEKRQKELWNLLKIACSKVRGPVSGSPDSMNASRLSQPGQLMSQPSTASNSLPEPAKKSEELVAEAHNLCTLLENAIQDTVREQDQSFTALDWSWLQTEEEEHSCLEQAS", "assay": "IKKβ Resin Enzyme Assay (IKK2 resin)", "type": "biochemical", "summary_of_the_method": "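Radiometric test: [γ-33P]ATP incorporation into a biotinylated IκBα peptide, 30 min at 25° C, pH 7.6 Hepes with MgCl2/MnCl2 and 1 μM cold ATP. Reaction is quenched with Dowex resin and the supernatant is counted. Kinase is FLAG-purified homodimeric recombinant human IKK2 from insect cells.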"}, "[1]": {"details": "Table 5, read-out: IKK2 Resin Avg. IC50"}, "[2]": {"details": "Table 7, read-out: IKK2 Resin IC50"}}, "note": "Structures can show the parent of a compound that is named as a salt. Where two headings read alike, the source gives them in different places."}
{"smiles": "CN1CCN(c2ccc(Cl)c(C(=O)Nc3ccc4c(c3)-c3c(c(C(N)=O)nn3-c3ccc(F)cc3)CC4)n2)CC1", "note": "(as salt: salt) [Example 256, 8-({[3-chloro-6-(4-methylpiperazin-1-yl)pyridin-2-yl]carbonyl}amino)-1-(4-fluorophenyl)-4,5-dihydro-1H-benzo[g]indazole-3-carboxamide]", "values": [{"measurement": "melting point", "result": "218 to 220", "unit": "°C"}]}
{"smiles": "NC(=O)c1nn(-c2ccc3c(c2)OCO3)c2c1CCc1ccc(NC(=O)c3cccnc3Cl)cc1-2", "note": "[Example 161, 1-(1,3-benzodioxol-5-yl)-8-{[(2-chloropyridin-3-yl)carbonyl]amino}-4,5-dihydro-1H-benzo[g]indazole-3-carboxamide]", "values": [{"measurement": "IC50", "setting": "IKK2; Table 4, read-out: IKK2 Resin IC50", "result": "≤ 1000", "unit": "nM"}, {"measurement": "melting point", "result": "165 to 166", "unit": "°C"}]}
{"smiles": "CNc1ncccc1C(=O)Nc1ccc2c(c1)-c1c(c(C(N)=O)nn1-c1ccc3c(c1)OCO3)CC2", "note": "[Example 207, 1-(1,3-benzodioxol-5-yl)-8-({[2-(methylamino)pyridin-3-yl]carbonyl}amino)-4,5-dihydro-1H-benzo[g]indazole-3-carboxamide]", "values": [{"measurement": "IC50", "setting": "IKK2; [1]", "result": "≤ 1000", "unit": "nM"}, {"measurement": "melting point", "result": "273 to 275", "unit": "°C"}]}
{"smiles": "NC(=O)c1nn(-c2ccc3c(c2)OCO3)c2c1CCc1ccc(NC(=O)c3cccnc3NCCO)cc1-2", "note": "[Example 208, 1-(1,3-benzodioxol-5-yl)-8-[({2-[(2-hydroxyethyl)amino]pyridin-3-yl}carbonyl)amino]-4,5-dihydro-1H-benzo[g]indazole-3-carboxamide]", "values": [{"measurement": "IC50", "setting": "IKK2; [1]", "result": "≤ 1000", "unit": "nM"}, {"measurement": "melting point", "result": "250 to 253", "unit": "°C"}]}
{"smiles": "COc1ccc(CNc2ncccc2C(=O)Nc2ccc3c(c2)-c2c(c(C(N)=O)nn2-c2ccc4c(c2)OCO4)CC3)cc1", "note": "[Example 209, 1-(1,3-benzodioxol-5-yl)-8-[({2-[(4-methoxybenzyl)amino]pyridin-3-yl}carbonyl)amino]-4,5-dihydro-1H-benzo[g]indazole-3-carboxamide]", "values": [{"measurement": "melting point", "result": "181 to 182", "unit": "°C"}]}
{"smiles": "NC(=O)c1nn(-c2ccc3c(c2)OCO3)c2c1CCc1ccc(NC(=O)c3cccnc3N)cc1-2", "note": "[Example 210, 8-{[(2-aminopyridin-3-yl)carbonyl]amino}-1-(1,3-benzodioxol-5-yl)-4,5-dihydro-1H-benzo[g]indazole-3-carboxamide]", "values": [{"measurement": "melting point", "result": "265 to 267", "unit": "°C"}]}
{"smiles": "NC(=O)c1nn(-c2ccc3c(c2)OCO3)c2c1CCc1ccc(NC(=O)c3cc(Cl)ncc3Cl)cc1-2", "note": "[Example 211, 1-(1,3-benzodioxol-5-yl)-8-[(2,5-dichloroisonicotinoyl)amino]-4,5-dihydro-1H-benzo[g]indazole-3-carboxamide]", "values": [{"measurement": "melting point", "result": "292 to 293", "unit": "°C"}]}
{"smiles": "NC(=O)c1nn(-c2ccc3c(c2)OCO3)c2c1CCc1ccc(NC(=O)c3cc(N4CCOCC4)ncc3Cl)cc1-2", "note": "[Example 212, 1-(1,3-benzodioxol-5-yl)-8-[(5-chloro-2-morpholin-4-ylisonicotinoyl)amino]-4,5-dihydro-1H-benzo[g]indazole-3-carboxamide]", "values": [{"measurement": "IC50", "setting": "IKK2; [1]", "result": "≤ 1000", "unit": "nM"}, {"measurement": "melting point", "result": "269 to 271", "unit": "°C"}]}
{"smiles": "CN1CCN(c2cc(C(=O)Nc3ccc4c(c3)-c3c(c(C(N)=O)nn3-c3ccc5c(c3)OCO5)CC4)c(Cl)cn2)CC1", "note": "[Example 214, 1-(1,3-benzodioxol-5-yl)-8-{[5-chloro-2-(4-methylpiperazin-1-yl)isonicotinoyl]amino}-4,5-dihydro-1H-benzo[g]indazole-3-carboxamide]", "values": [{"measurement": "melting point", "result": "305 to 307", "unit": "°C"}]}
{"smiles": "NC(=O)c1nn(-c2ccc3c(c2)OCO3)c2c1CCc1ccc(NC(=O)c3nc(Cl)ccc3Cl)cc1-2", "note": "[Example 216, 1-(1,3-benzodioxol-5-yl)-8-{[(3,6-dichloropyridin-2-yl)carbonyl]amino}-4,5-dihydro-1H-benzo[g]indazole-3-carboxamide]", "values": [{"measurement": "melting point", "result": "263 to 265", "unit": "°C"}]}
{"smiles": "NC(=O)c1nn(-c2ccc3c(c2)OCO3)c2c1CCc1ccc(NC(=O)c3nc(N4CCOCC4)ccc3Cl)cc1-2", "note": "[Example 219, 1-(1,3-benzodioxol-5-yl)-8-{[(3-chloro-6-morpholin-4-ylpyridin-2-yl)carbonyl]amino}-4,5-dihydro-1H-benzo[g]indazole-3-carboxamide]", "values": [{"measurement": "IC50", "setting": "IKK2; [1]", "result": "≤ 1000", "unit": "nM"}, {"measurement": "melting point", "result": "260 to 262 °C (dec.)"}]}
{"smiles": "CNc1ccc(Cl)c(C(=O)Nc2ccc3c(c2)-c2c(c(C(N)=O)nn2-c2ccc4c(c2)OCO4)CC3)n1", "note": "[Example 220, 1-(1,3-benzodioxol-5-yl)-8-({[3-chloro-6-(methylamino)pyridin-2-yl]carbonyl}amino)-4,5-dihydro-1H-benzo[g]indazole-3-carboxamide]", "values": [{"measurement": "IC50", "setting": "IKK2; [1]", "result": "≤ 1000", "unit": "nM"}, {"measurement": "melting point", "result": "269 to 270 °C (dec.)"}]}
{"smiles": "NC(=O)c1nn(-c2ccc(F)cc2)c2c1CCc1ccc(NC(=O)c3cccnc3N3CCNCC3)cc1-2", "note": "[Example 245, 1-(4-fluorophenyl)-8-{[(2-piperazin-1-ylpyridin-3-yl)carbonyl]amino}-4,5-dihydro-1H-benzo[g]indazole-3-carboxamide]", "values": [{"measurement": "IC50", "setting": "IKK2; [2]", "result": "≤ 1000", "unit": "nM"}, {"measurement": "melting point", "result": "156 to 157", "unit": "°C"}]}
{"smiles": "Cc1cc(Cl)ncc1C(=O)Nc1ccc2c(c1)-c1c(c(C(N)=O)nn1-c1ccc(F)cc1)CC2", "note": "[Example 246, 8-{[(6-chloro-4-methylpyridin-3-yl)carbonyl]amino}-1-(4-fluorophenyl)-4,5-dihydro-1H-benzo[g]indazole-3-carboxamide]", "values": [{"measurement": "IC50", "setting": "IKK2; [2]", "result": "≤ 1000", "unit": "nM"}, {"measurement": "melting point", "result": "280 to 284", "unit": "°C"}]}
{"smiles": "Cc1cc(N2CCOCC2)ncc1C(=O)Nc1ccc2c(c1)-c1c(c(C(N)=O)nn1-c1ccc(F)cc1)CC2", "note": "[Example 247, 1-(4-fluorophenyl)-8-{[(4-methyl-6-morpholin-4-ylpyridin-3-yl)carbonyl]amino}-4,5-dihydro-1H-benzo[g]indazole-3-carboxamide]", "values": [{"measurement": "IC50", "setting": "IKK2; [2]", "result": "≤ 1000", "unit": "nM"}, {"measurement": "melting point", "result": "301 °C (dec.)"}]}
{"smiles": "NC(=O)c1nn(-c2ccc(F)cc2)c2c1CCc1ccc(NC(=O)c3cc(N4CCOCC4)ncc3Cl)cc1-2", "note": "[Example 249, 8-[(5-chloro-2-morpholin-4-ylisonicotinoyl)amino]-1-(4-fluorophenyl)-4,5-dihydro-1H-benzo[g]indazole-3-carboxamide]", "values": [{"measurement": "IC50", "setting": "IKK2; [2]", "result": "≤ 1000", "unit": "nM"}, {"measurement": "melting point", "result": "309 to 313", "unit": "°C"}]}
{"smiles": "CN1CCN(c2cc(C(=O)Nc3ccc4c(c3)-c3c(c(C(N)=O)nn3-c3ccc(F)cc3)CC4)ccn2)CC1", "note": "[Example 251, 1-(4-fluorophenyl)-8-{[2-(4-methylpiperazin-1-yl)isonicotinoyl]amino}-4,5-dihydro-1H-benzo[g]indazole-3-carboxamide]", "values": [{"measurement": "IC50", "setting": "IKK2; [2]", "result": "≤ 1000", "unit": "nM"}, {"measurement": "melting point", "result": "277 to 279", "unit": "°C"}]}
{"smiles": "NC(=O)c1nn(-c2ccc(F)cc2)c2c1CCc1ccc(NC(=O)c3nc(N4CCOCC4)ccc3Cl)cc1-2", "note": "[Example 255, 8-{[(3-chloro-6-morpholin-4-ylpyridin-2-yl)carbonyl]amino}-1-(4-fluorophenyl)-4,5-dihydro-1H-benzo[g]indazole-3-carboxamide]", "values": [{"measurement": "IC50", "setting": "IKK2; [2]", "result": "≤ 1000", "unit": "nM"}, {"measurement": "melting point", "result": "252 to 254", "unit": "°C"}]}
